According to patent publication US20060281689A1, “Method for modulating activity of HCV protease through use of a novel HCV protease inhibitor to reduce duration of treatment period” (Schering Corporation, priority 2005, published 2006):

Experiments:
hepatitis C virus [1] = assay: Model of viral dynamics modified with Total ε: theoretical effectiveness rate and viral load over a 48 week treatment period; design: species or system patients
Excerpt: The effectiveness of suppression of viral production through treatment in accordance with the methods of the present invention can be calculated through a combination pharmacokinetic and pharmacodynamic analysis with a modified version of the absorption and elimination model described in the art. See Powers K A. et al. (Seminars in Liver Disease, 23 Suppl. 1:13-8, 2003). The absorption and elimination model, which incorporates the Neumann et al. model of viral dynamics, calculates simulated changes in drug concentration and effectiveness of single drug treatment in Equations […], 6, and 7. See Powers K A. et al. (Seminars in Liver Disease, 2003, 23 Suppl. 1:13-8), and Neumann A U, Lam N P, Dahari H, et al. (Science 1998, 282: 103-107). […]
Equation 7 incorporates the effects of a delay between a drug binding to its receptor and beginning its biological action. […] Thus, for t>τ, [formula] the effectiveness rate, ε, of a drug at time, t, is calculated by Equation 7.
For the present invention, the Neumann et al. model of Equation 1 and the absorption and elimination model of Equations 5, 6, and 7, is modified to incorporate calculations for monitoring the effectiveness rate of suppressing viral production by multiple drug treatment through combination therapy with the HCV protease inhibitor and HCV agents including interferon, interferon pegylated, and/or ribavirin. The absorption and elimination model in Equations 5, 6, and 7 is modified by including an effectiveness rate of a combination therapy, Total ε, which is based upon combining the individual efficacy, ε, over time, t, as calculated by Equation 7, for each drug used in the combination therapy of the present invention. The effectiveness rate, Total ε, is calculated with the formula […], where ε(t)Pl is the effectiveness of a HCV protease inhibitor and where ε(t)Ag is the effectiveness of an HCV agent, both independently calculated by Equation 7. […]

hepatitis C virus [2] = assay: Parallel group study in patients afflicted with hepatitis C virus, 14 days, mean viral load (HCV RNA); assay type: in vivo; conditions: either dose (200 mg or 400 mg three times a day orally) in combination with PEG-Intron 1.5 mcg/kg/week
Protocol: Preferably, in the practice of the invention, the concentration of HCV-RNA is quantitatively measured by research-based reverse transcriptase polymerase chain reaction (RT-PCR) assay well known to the skilled clinician. Specifically, the Hepatitis C virus (HCV) RNA is measured by extracting total RNA from plasma or serum samples and using an in-house real-time reverse transcriptase polymerase chain reaction (RT-PCR) assay. The amplification target is the 5′-untranslated region (UTR) of the HCV genome. An internal RNA control is added to each sample to assess the efficiency of RNA extraction. Appropriate negative and positive controls are added in each assay run. The assay method has been validated against the WHO International Standard for HCV. HCV RNA amount in a sample is reported as copies of HCV RNA per mL of sample and also as HCV IU per mL of sample. Results for sample at or above 100 copies of HCV RNA per mL are denoted as POS. On the other hand, ND stands for <100 copies of HCV RNA or <29 IU of HCV per mL of sample. […] With respect to quantifying HCV RNA with the rt-PCR methodology referred to herein, one (1) copy of HCV RNA equals 0.29 IU, such that 100 copies of HCV RNA per milliliter of plasma is 29 International Units per milliliter of plasma. […] HCV genotype is determined by sequencing the PCR amplified DNA fragment of the 5′-UTR of the HCV genome. […]

Structure (SMILES): CC(C)(C)NC(=O)N[C@H](C(=O)N1CC2C([C@H]1C(=O)NC(CC1CCC1)C(=O)C(N)=O)C2(C)C)C(C)(C)C (some centres unmarked) [HCV protease inhibitor]
- theoretical effectiveness rate, ε, over time, t (hepatitis C virus [1]; 200 mg three times a day orally with PEG-Intron 1.5 mcg/kg/week subcutaneously, 48 weeks): 0.989
- time of treatment until viral load is below 29 IU/ml plasma (100 copies per ml plasma) (hepatitis C virus [1]; 200 mg three times a day orally with PEG-Intron 1.5 mcg/kg/week subcutaneously, theoretical calculations): approximately 14 weeks
- effectiveness rate, ε, over time, t (hepatitis C virus [1]; 400 mg three times a day orally with PEG-Intron 1.5 mcg/kg/week subcutaneously, 48 weeks): 0.997
- viral load in the second week of treatment (hepatitis C virus [2]): continued to decline
- decrease in mean viral load at the end of the first week of treatment (hepatitis C virus [2]; compared with PEG-Intron alone): much steeper decrease in mean viral load
